Read-outs that look alike come from different tables or passages of the source.
Target: T1, PPME (Homo sapiens, UniProt Q9Y570)
T1 construct: made in house; host or cells: E. coli BL21(DE3)
T1 sequence (Q9Y570 1-386): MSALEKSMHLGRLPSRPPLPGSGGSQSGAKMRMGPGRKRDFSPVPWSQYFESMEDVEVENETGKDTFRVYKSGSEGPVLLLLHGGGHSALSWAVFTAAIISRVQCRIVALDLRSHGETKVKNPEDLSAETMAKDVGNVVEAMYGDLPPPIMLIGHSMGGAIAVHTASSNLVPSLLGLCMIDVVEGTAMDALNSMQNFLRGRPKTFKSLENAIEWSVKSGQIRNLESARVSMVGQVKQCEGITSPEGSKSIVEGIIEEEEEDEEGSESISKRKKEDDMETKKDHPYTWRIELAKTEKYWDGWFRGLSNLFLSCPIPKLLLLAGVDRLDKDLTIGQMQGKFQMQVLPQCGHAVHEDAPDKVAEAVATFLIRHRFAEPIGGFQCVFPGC
Assay: PP2A methylesterase (PPME) inhibition, filter paper method
Format: biochemical
Description: This example provides a method by which the rate of demethylation of methyl PP2A can be determined. For the composition of ^3H-labeled methyl-PP2A, 100 μl reaction mixtures consisting of purified PP2A AC dimers (prepared as described in Example 3), purified PPMT (prepared as described in Example 1), 50 mM MOPS buffer pH 7.2, 5 mM DTT, 1 mM EDTA, 1 mg/ml BSA and 10 μl ^3H-SAM were incubated at 37° C. for 30 min and loaded onto a desalting column pre-equilibrated in 50 mM MOPS-Na pH 7.2, 1 mM DTT, 1 mM EDTA, 200 mM NaCl and 5% glycerol. The sample was eluted with the same buffer, 50 μl fractions were collected, and each aliquot analyzed by scintillation counting. Fractions containing ^3H-methyl PP2A were collected and stored at 4° C.
The following assay (see Lee, J. et al., Proc. Nat'l Acad. Sci. U.S.A. 93(12):[…] (1996)) is referred to subsequently as the “filter paper method”. The test compound was incubated with purified PPME (prepared as described in Example 2) and purified ^3H-methyl-labeled PP2A (the preparation of which is described in the preceding paragraph) in Buffer C (50 mM MOPS, 1 mM EDTA, 1 mM DTT buffer at pH 7.2, as in Example 3). After incubation at 37° C. for a fixed time (typically 10 minutes), the reaction mixture was spotted onto a 1 cm^2 piece of Whatman 3 mM filter paper. The filter paper was immediately dipped in 10% ice-cold TCA, and then kept on ice in a plastic tray. After all reactions were run, the filter papers were washed at 4° C. with stirring in a large excess of 10% TCA, similarly washed twice at 4° C. with 100% methanol, and then vacuum dried at 45° C. for 1 hr to remove the ^3H-methanol produced by PP2A demethylation. The dried filter papers then were assayed for radioactivity by submerging them in scintillation fluid and performing scintillation counting. This procedure is easily adapted to a 96-well format to allow high-throughput screening (described below).
As used herein to refer to assay results, the term “inhibition activity” refers to the following relationship: Inhibition activity=1−(amount of methyl-PP2A carboxyl demethylated with inhibitor)/(amount of methyl-PP2A carboxyl […] without inhibitor).

[1] = PPME at 85 nM, IC50 higher than the value tested, read-out: IC50

Row | Compound | IC50 [1] | further results
1 | Cc1c(C)c2c(c(C)c1O)CCC(C)(CCCC(C)CCCC(C)CCCC(C)C)O2 (racemic) [#12-1, DL-α-tocopherol] | – | IC50 (PPME at 85 nM, read-out: IC50): 35 µM
2 | COc1cc(/C=C/C(=O)CC(=O)/C=C/c2ccc(O)c(OC)c2)ccc1O [CCM-L, Curcumin] | – | IC50 (PPME at 85 nM, read-out: IC50): 771 µM
3 | COc1cc(C=CC(=O)O)ccc1O [HMCA, 4-Hydroxy-3-methoxycinnamic acid] | > 1000 µM | –
4 | Cn1c(=O)c2c(ncn2C)n(C)c1=O [caffeine] | – | IC50 (read-out: concentration required for 50% inhibition of PPME): > 440 µM

More lines, main results first:

Row | IC50 [1] | Compound | further results
5 | > 1000 µM | O=C(/C=C/c1ccc(O)c(O)c1)O[C@@H]1C[C@](O)(C(=O)O)C[C@@H](O)[C@H]1O [CGA, Chlorogenic acid] | –
6 | > 1000 µM | O=C(O)/C=C/c1ccc(O)c(O)c1 [DHCA, 3,4-Dihdroxycinnamic acid] | –
7 | > 10000 µM | O=C(O)[C@]1(O)C[C@@H](O)[C@@H](O)[C@H](O)C1 [QA, D(−)-Quinic acid] | –
